Read-outs that look alike come from different tables or passages of the source. Marks after values point to notes of the source that are not given here.
Legend:
[1] = tested on: Candida rugosa lipase; assay: Inhibition of Candida rugosa lipase toward emulsified triolein substrate PC/PI; type: biochemical
Experimental: Recombinant hormone-sensitive lipase protein isolated from a bacterial expression vector was pre-incubated with a compound of the invention (e.g., 100 μM) prior to the addition of substrate, emulsified triolein phosphatidylcholine/phosphatidylinositol (PC/PI), to initiate the reaction. At various time points, aliquots of the reaction were taken, and the level of glycerol used as an index of enzyme activity. Pharmacological specificity is determined by incubating test compound with other mammalian and non-mammalian lipase enzyme systems to assess inhibition of activity. The assay was conducted using triolein concentrations from 42 μM to 835 μM.

[2] = tested on: C57/B16J lean mice; assay: Circulating free fatty acid levels in overnight-fasted normal mice; type: in vivo; conditions: 50 mg/kg daily intraperitoneal for 2 weeks
Experimental: (§1) Male, C57/B16J lean mice were purchased from Jackson Laboratories, Bar Harbor, Me. Animals were housed and maintained in accordance with NIH guidelines and had free access to water and food ad libitum. Test compounds of the present invention were suspended in 0.25% methylcellulose (w/v in distilled water) and stored at −20° C. in single use aliquots. Animals received a daily dose via the intraperitoneal route of administration for 2 weeks. After the last dose, animals were fasted overnight. On the following morning, a 250 μl blood sample was drawn via the retro-orbital sinus into a tube containing an EDTA-saline solution and centrifuged at 1,200×g for 15 min. The plasma fraction was analyzed for non-esterified free fatty acid content (NEFA) using the NEFA C diagnostic kit (WAKO Chemicals USA, Richmond, Va.), and glycerol with the triglyceride GPO-Trinder diagnostic kit (Sigma) modified for use on a BM Hitachi 911 clinical chemistry analyzer. P-values from a student's t-test were calculated using the Prizm software data analysis program (Graphpad, Sorrento Calif.).

[3] = tested on: KK/Ay mice; assay: Effects in fasted KK/Ay mice (plasma lipids and glucose); type: in vivo; conditions: daily intraperitoneal for 2 weeks
Experimental: as §1
Male, KK/Ay mice were purchased from Clea Japan USA, Pennington, N.J. At 4 months of age, animals received daily intraperitoneal administration of 2α-benzoyloxy-5,7,8αH-eudesma-4(15), 11(13)-dien-8,12-olide for 2 weeks. As described in Example 10, fasting plasma NEFA values were obtained. In addition, cholesterol and triglycerides were measured using BM reagent assay kits on a BM Hitachi 911 clinical chemistry analyzer. […] Plasma glucose levels were measured using a Boehringer Mannheim reagent assay kits on a Boehringer Mannheim Hitachi 911 clinical chemistry w analyzer.

[4] = tested on: rabbits; conditions: cited from earlier work

For `C=C1C(=O)O[C@@H]2C[C@@]3(C)C[C@@H](OC(=O)c4ccccc4)CC(=C)[C@@H]3C[C@H]12` [2α-benzoyloxy-5,7,8αH-eudesma-4(15),11(13)-dien-8,12-olide], the “inhibition of Candida rugosa lipase (in words)” value ([1]; emulsified triolein substrate PC/PI) was “did not inhibit enzyme activity”, the “% Inhibition (Candida lipase)” value ([1]; triolein substrate 42 μM) was 40% and the “Candida Lipase + test compound (enzyme activity)” value (shortened to “Candida Lipase + test compound”) ([1]; triolein substrate 42 μM) was 3.21. For the same compound, the “% Inhibition (Candida lipase)” value ([1]; triolein substrate 83.5 μM) was −12%, the “Candida Lipase + test compound” value ([1]; triolein substrate 83.5 μM) was 11.59 and the “% Inhibition (Candida lipase)” value ([1]; triolein substrate 167 μM) was 6.3%. For the same compound, the “Candida Lipase + test compound” value ([1]; triolein substrate 167 μM) was 14.14, the “% Inhibition (Candida lipase)” value ([1]; triolein substrate 334 μM) was 3.6% and the “Candida Lipase + test compound” value ([1]; triolein substrate 334 μM) was 22.68. For the same compound, the “% Inhibition (Candida lipase)” value ([1]; triolein substrate 501 μM) was −1.7%, the “Candida Lipase + test compound” value ([1]; triolein substrate 501 μM) was 60.13 and the “% Inhibition (Candida lipase)” value ([1]; triolein substrate 668 μM) was −1.1%. For the same compound, the “Candida Lipase + test compound” value ([1]; triolein substrate 668 μM) was 93.59, the “% Inhibition (Candida lipase)” value ([1]; triolein substrate 835 μM) was 1.0% and the “Candida Lipase + test compound” value ([1]; triolein substrate 835 μM) was 89.71. The “NEFA (fasting plasma)” value ([2]; vehicle 1.108) was 0.808 mM, the “Glycerol (fasting plasma)” value ([2]; vehicle 36) was 28^b mg/dl and the “% reduction NEFA” value ([2]; vs vehicle) was 27%. The “fasting plasma NEFA” value [3] was “significant reductions”, the plasma cholesterol [3] was “significant reductions” and the plasma glycerol [3] was “significant reductions”. For the same compound, the plasma triglycerides [3] was “significant reductions” and the “fasting plasma glucose level” value ([3]; control mice 184±24 mg/dL, p <0.01) was 90 ± 29 mg/dL.

In the case of `C=C1C(=O)O[C@@H]2C[C@@]3(C)CCC[C@H](C)C3=C[C@H]12` [alantolactone, 4,7,8αH-eudesma-5(6), 11(13)-dien-8,12-olide], the “effect on blood glucose” value ([4]; moderate dose) is given as “induce hypoglycemia”, the “effect on hyperglycemia induced by food” value ([4]; rabbit, in vivo) is given as “inhibit hyperglycemia induced by food” and the “effect on blood glucose” value ([4]; rabbits, high dose) is given as “induce hyperglycemia”.

From patent US20020151581A1, “Glucose and lipid lowering compounds” (priority 1998, published 2002)
